Data reported in patent publication US20250325675A1, “APTAMER, CONJUGATE, COMPOSITION, METHOD FOR PREPARING SAME, AND USE THEREOF” (priority 2022, published 2025).
{Cy5} = cyanine 5 fluorescent dye

Tests used:
U118-MG glioma cells = experiment: Flow cytometry: entry of conjugates into U118-MG glioma cells in vitro; type: cell-based, human; details: for relative fluorescence difference R: R=(MFIAP1−MFICAP10)/MFICAP10; for mean fluorescence intensity (MFI): 1 h 37°C, yeast tRNA 100 μg/mL, flow cytometry
Description: U118MG cells were seeded into a 96-well plate at 5×10^5 cells/well. Conjugate AP1 prepared above and yeast tRNA were respectively formulated into conjugates solution 1A, 1B, 1C, 1D, 1E, 1F, 1G, 1H, and 1I with DMEM medium, and these conjugate solutions 1A-1I comprised yeast tRNA at a final concentration of 100 μg/mL and respectively comprised conjugate AP1 at final concentrations of 5 nM, 10 nM, 20 nM, 40 nM, 60 nM, 80 nM, 100 nM, 150 nM, 200 nM, and […].
Control conjugate comparative AP10 prepared above and yeast tRNA were respectively formulated into conjugates solution 1A′, 1B′, 1C′, 1D′, 1E′, 1F′, 1G′ 1H′, and 1I′ with DMEM medium, and these conjugate solutions 1A′-1I′ comprised yeast tRNA at a final concentration of 100 μg/mL and respectively comprised control conjugate comparative AP10 at final concentrations of 5 nM, 10 nM, 20 nM, 40 nM, 60 nM, 80 nM, 100 nM, 150 nM, 200 nM, and […].
The aforementioned culture wells containing U118MG cells were respectively added with the conjugate solutions 1A-1I above in an amount of 200 μL/well and designated as test group 1A-test group 1I. The aforementioned culture wells containing U118MG cells were respectively added with the conjugate solution 1A′-1I′ above in an amount of 200 μL/well and designated as control group 1A′-control group 1I′. Another culture well containing U118MG cells was added with 200 μL DMEM medium containing yeast tRNA at a final concentration of 100 μg/mL and designated as blank control group 1J. The 96-well plate containing the above test groups and the blank control group were incubated at 37° C. for 1 h in the dark; after incubation, the supernatant of the reaction mixture of each test group and the blank control group was aspirated, and DPBS buffer (purchased from Thermo Fisher) was added to wash the plate 3 times (100 μL each time). After the washing solution was aspirated, each culture well was added with 100 μL DMEM medium to obtain a cell suspension. The supernatant was removed by centrifugation and then 500 μL DPBS buffer was added to re-suspend the cells. Flow cytometry analysis was performed with flow cytometer (BD Biosciences): 10,000 cells in each test group or the blank control group were analyzed, the fluorescence intensity distribution was determined and the mean fluorescence intensity (MFI, a.u.) was calculated. Furthermore, the mean fluorescence intensity corresponding to each final concentration of conjugates is listed in Table 4 below for comparison, and the relative fluorescence difference R is calculated according to the following equation: R=(MFIAP1−MFICAP10)/MFICAP10.
Therein, MFIAP1 represents mean fluorescence intensity of conjugate AP1 in U118-MG glioma cells, and MFICAP10 represents mean fluorescence intensity of comparative AP10 in U118-MG glioma cells.

U118MG glioma cells = experiment: High content imaging: entry of conjugates into U118MG glioma cells; type: cell-based, human; details: 100 nM, 30 min 37°C, normalized to control group 2Y
Description: (§1) In this experiment, the entry of conjugate AP1 provided by the present disclosure and comparative conjugate comparative AP10 into different cells was observed by a PerkinElmer High Content Imaging system (Operatta).
(§2) U118MG glioma cells, SVGp12 normal astrocytes, T98G human brain glioma cells, U251 human glioma cells, A549 human non-small cell lung cancer cells, MCF-7 human breast cancer cells, and 293T human kidney epithelial cells were all purchased from the Shanghai Cell Bank of Chinese Academy of Sciences. […] The supernatant was aspirated and DPBS buffer (purchased from Thermo Fisher) was added to wash the plate 2 times (100 μL each time).
(§3) Conjugate AP1 prepared above and yeast tRNA were respectively formulated into conjugate solution 2A with DMEM medium, and the conjugate solution 2A comprised yeast tRNA at a final concentration of 100 μg/mL and conjugate AP1 at a final concentration of 100 nM. […]
(§4) Normalization was performed according to the mean fluorescence intensity of control group 2Y, that is, subtracting the mean fluorescence intensity of control group 2Y from the fluorescence intensity of test group 2X before performing imaging.

SVGp12 normal astrocytes = experiment: High content imaging: entry of conjugates into SVGp12 normal astrocytes; type: cell-based, human; details: 100 nM, 30 min 37°C
Description: as §1, §2, §3, §4

U251 human glioma cells = experiment: High content imaging: entry of conjugates into U251 cells; type: cell-based; details: 100 nM, 30 min 37°C
Description: as §1, §2, §3, §4

[1] = system: MCF-7 human breast cancer cells; experiment: High content imaging: entry of conjugates into MCF-7 cells; type: cell-based; details: 100 nM, 30 min 37°C
Description: as §1, §2, §3, §4

[2] = system: 293T human renal epithelial cells; experiment: High content imaging: entry of conjugates into 293T cells; type: cell-based; details: 100 nM, 30 min 37°C, normal cells
Description: as §1, §2, §3, §4

## CY5-CfUfGGAGUfUfCfAGACfGUfGUfUfGCfUfCfUfUfCfCfGAUfCfUfCf (CUGGAGUUCAGACGUGUUGCUCUUCCGAUCUC; 2'-fluoro at CU, RNA at AG, 5' {Cy5}, backbone not given here) [AP1]
U118-MG glioma cells; 5 nM
  relative fluorescence difference R: 9.37
U118-MG glioma cells; 10 nM
  relative fluorescence difference R: 6.47
U118-MG glioma cells; 20 nM
  relative fluorescence difference R: 5.18
U118-MG glioma cells; 40 nM
  relative fluorescence difference R: 2.25
U118-MG glioma cells; 60 nM
  relative fluorescence difference R: 2.53
U118-MG glioma cells; 80 nM
  relative fluorescence difference R: 2.71
U118-MG glioma cells; 100 nM
  relative fluorescence difference R: 1.88
U118-MG glioma cells; 150 nM
  relative fluorescence difference R: 2.17
U118-MG glioma cells; 200 nM
  relative fluorescence difference R: 3.23
U118-MG glioma cells; 500 nM
  relative fluorescence difference R: 2.91
U118-MG glioma cells; at different concentrations (5-500 nM)
  mean fluorescence intensity compared with comparative AP10: significantly higher mean fluorescence intensity
U118-MG glioma cells; conjugate 5 nM
  mean fluorescence intensity (MFI): 263.4 a.u.
U118-MG glioma cells; conjugate 10 nM
  mean fluorescence intensity (MFI): 503.4 a.u.
U118-MG glioma cells; conjugate 20 nM
  mean fluorescence intensity (MFI): 1089.4 a.u.
U118-MG glioma cells; conjugate 40 nM
  mean fluorescence intensity (MFI): 1440.4 a.u.
U118-MG glioma cells; conjugate 60 nM
  mean fluorescence intensity (MFI): 2355.4 a.u.
U118-MG glioma cells; conjugate 80 nM
  mean fluorescence intensity (MFI): 2921.4 a.u.
U118-MG glioma cells; conjugate 100 nM
  mean fluorescence intensity (MFI): 3360.4 a.u.
U118-MG glioma cells; conjugate 150 nM
  mean fluorescence intensity (MFI): 3969.4 a.u.
U118-MG glioma cells; conjugate 200 nM
  mean fluorescence intensity (MFI): 7895.4 a.u.
U118-MG glioma cells; conjugate 500 nM
  mean fluorescence intensity (MFI): 15770.4 a.u.
U118MG glioma cells
  Cy5 fluorescence signal in cells: strong Cy5 fluorescence signal
SVGp12 normal astrocytes
  Cy5 fluorescence signal in cells: did not show any fluorescence signal
U251 human glioma cells
  Cy5 fluorescence signal in cells: strong Cy5 fluorescence signal
[1]
  Cy5 fluorescence signal in cells: strong Cy5 fluorescence signal
[2]
  Cy5 fluorescence signal in cells: nor the 293T human renal epithelial cells showed any fluorescence signal
